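Growth conditions: 96-well plates. Treatment: test compound, 48 hours, 5 concentrations. Analysis: linear interpolation between bracketing concentrations; unreached endpoints set to highest concentration. The concentration for 50% growth inhibition is given as GI50.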 The source made the active and inactive calls. No stated cut-off is given here; in the data, active = GI50 up to about 1.1 µM and inactive = higher.
Columns and labels:
Experiment in all cases: growth of human tumour cells (NCI), 48 h
M14 = test system: M14
U-251 = test system: U-251
HT-29 = test system: HT-29
DMS-114 = test system: DMS-114
KM12 = test system: KM12
RXF 393 = test system: RXF 393
A549 = test system: A549
K562 = test system: K562
SNB-75 = test system: SNB-75
HOP-18 = test system: HOP-18
DMS-273 = test system: DMS-273
KM-20L2 = test system: KM-20L2
SN12C = test system: SN12C
SNB-78 = test system: SNB-78
CCRF-CEM = test system: CCRF-CEM
NCI/ADR-RES = test system: NCI/ADR-RES

SMILES | GI50 (M14) | GI50 (U-251) | GI50 (HT-29) | GI50 (DMS-114) | GI50 (KM12) | GI50 (RXF 393) | GI50 (A549) | GI50 (K562) | GI50 (SNB-75) | GI50 (HOP-18) | GI50 (DMS-273) | GI50 (KM-20L2) | GI50 (SN12C) | GI50 (SNB-78) | GI50 (CCRF-CEM) | GI50 (NCI/ADR-RES)
CC1CCN(c2cc(-c3cc4ccccc4o3)oc(=O)c2C#N)CC1 | > 100 µM (inactive) | > 100 µM (inactive) | > 100 µM (inactive) | > 100 µM (inactive) | > 100 µM (inactive) | 45.7 µM (inactive) | > 100 µM (inactive) | > 100 µM (inactive) | > 100 µM (inactive) | > 100 µM (inactive) | > 100 µM (inactive) | > 100 µM (inactive) | > 100 µM (inactive) | > 10 µM (inactive) | > 100 µM (inactive) | 
CCn1cnnc1-c1nsc2ccccc12 | > 100 µM (inactive) | > 100 µM (inactive) | > 100 µM (inactive) | > 100 µM (inactive) | > 100 µM (inactive) | 23.2 µM (inactive) | > 100 µM (inactive) | 68.1 µM (inactive) | 0.369 µM (active) | > 100 µM (inactive) | > 100 µM (inactive) | > 100 µM (inactive) | > 100 µM (inactive) | > 100 µM (inactive) | > 100 µM (inactive) | 
O=[N+]([O-])c1cc(C(F)(F)F)cc2c1SC1=Nc3ccccc3CN12 |  | > 100 µM (inactive) | > 100 µM (inactive) | > 100 µM (inactive) | > 100 µM (inactive) | > 100 µM (inactive) | > 100 µM (inactive) | > 100 µM (inactive) | > 100 µM (inactive) | > 100 µM (inactive) | > 100 µM (inactive) | > 100 µM (inactive) | > 100 µM (inactive) | > 100 µM (inactive) | > 100 µM (inactive) | > 100 µM (inactive)
CC(C)COC(=O)N1N=NC2C3CC(=O)C(O3)C21 (stereo not given) | > 100 µM (inactive) | > 100 µM (inactive) | > 100 µM (inactive) | > 100 µM (inactive) | > 100 µM (inactive) | > 100 µM (inactive) | > 100 µM (inactive) | > 100 µM (inactive) | > 100 µM (inactive) | > 100 µM (inactive) | > 100 µM (inactive) | > 100 µM (inactive) | > 100 µM (inactive) | > 100 µM (inactive) | > 100 µM (inactive) | 
N/C(=N\O)N/N=C/c1ccc2c(c1)OCCO2 |  | 21.3 µM (inactive) | 8.53 µM (inactive) | > 28.2 µM (inactive) | 5.04 µM (inactive) | 27.9 µM (inactive) | 4.7 µM (inactive) | 7.85 µM (inactive) | 29.9 µM (inactive) | 24.2 µM (inactive) | 16.6 µM (inactive) | 4.13 µM (inactive) | 29.6 µM (inactive) | 57.7 µM (inactive) | 33.7 µM (inactive) | 11.1 µM (inactive)

Source: ChEMBL document CHEMBL1201862, “PubChem BioAssay data set” (2004)
